In patent US8071287B2, “Pharmaceutical and therapeutic applications relating to a type 9 adenylyl cyclase Polymorphism in asthma and reversible bronchial obstruction” (priority 2005, dated 2011):
Changes are numbered by the printed parent chain.

Assays:
Met772 AC9 = target: T1, Met772 AC9 (Homo sapiens, UniProt O60503, I772M); test: Adenylyl cyclase activities in membranes of A431 cells transfected with Met772 AC9; format: biochemical; settings: 10 μM albuterol; for stimulated adenylyl cyclase activities of Met772 compared to WT: no corticosteroid, 1.8 mM MnCl2 or 10 mM NaF; for albuterol stimulated adenylyl cyclase activities: Met772 cells, N=5
T1 construct: expressed in transfected cells
T1 sequence (O60503 1-1353 I772M): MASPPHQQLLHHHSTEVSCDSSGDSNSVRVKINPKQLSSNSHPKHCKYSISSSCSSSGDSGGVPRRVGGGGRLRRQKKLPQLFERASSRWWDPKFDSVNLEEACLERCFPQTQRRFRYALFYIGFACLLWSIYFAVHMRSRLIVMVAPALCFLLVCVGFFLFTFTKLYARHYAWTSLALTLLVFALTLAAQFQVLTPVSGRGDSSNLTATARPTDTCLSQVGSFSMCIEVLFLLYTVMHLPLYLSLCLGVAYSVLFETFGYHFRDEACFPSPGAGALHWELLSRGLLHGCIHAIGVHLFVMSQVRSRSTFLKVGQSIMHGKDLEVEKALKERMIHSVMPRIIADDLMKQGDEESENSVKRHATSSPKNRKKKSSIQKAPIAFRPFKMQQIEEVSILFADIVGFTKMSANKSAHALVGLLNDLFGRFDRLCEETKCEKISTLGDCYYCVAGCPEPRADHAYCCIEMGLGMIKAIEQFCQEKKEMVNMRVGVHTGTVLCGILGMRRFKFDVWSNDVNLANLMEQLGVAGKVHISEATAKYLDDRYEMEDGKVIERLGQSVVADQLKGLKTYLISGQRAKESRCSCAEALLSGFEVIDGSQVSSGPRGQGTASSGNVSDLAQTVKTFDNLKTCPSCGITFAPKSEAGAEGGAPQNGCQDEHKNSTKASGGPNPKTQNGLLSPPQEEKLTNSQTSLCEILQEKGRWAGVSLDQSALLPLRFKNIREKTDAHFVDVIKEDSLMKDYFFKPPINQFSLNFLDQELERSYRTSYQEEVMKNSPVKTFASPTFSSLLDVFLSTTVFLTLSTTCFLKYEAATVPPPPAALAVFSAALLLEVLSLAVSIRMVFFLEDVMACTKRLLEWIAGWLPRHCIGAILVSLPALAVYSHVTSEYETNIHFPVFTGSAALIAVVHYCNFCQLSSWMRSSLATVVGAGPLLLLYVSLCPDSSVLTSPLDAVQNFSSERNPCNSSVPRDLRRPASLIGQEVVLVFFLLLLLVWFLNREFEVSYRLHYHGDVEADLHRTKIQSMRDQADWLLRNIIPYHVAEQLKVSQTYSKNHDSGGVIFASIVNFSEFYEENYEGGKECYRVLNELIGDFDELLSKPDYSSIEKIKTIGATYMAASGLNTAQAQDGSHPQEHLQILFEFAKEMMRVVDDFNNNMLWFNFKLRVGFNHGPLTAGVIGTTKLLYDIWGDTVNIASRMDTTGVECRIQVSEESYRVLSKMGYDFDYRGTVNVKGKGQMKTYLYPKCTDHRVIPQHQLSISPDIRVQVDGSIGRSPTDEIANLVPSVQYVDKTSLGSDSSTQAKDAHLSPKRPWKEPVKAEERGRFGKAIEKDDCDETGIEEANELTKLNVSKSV
From the text: (§1) The WT coding sequence for the human AC9 gene is considered that of GenBank accession number DQ005545. With the adenine of the initiator codon being considered nucleotide 1, a polymorphism consisting of an […] which results in […] (accession number DQ008441) was previously described in Small et al, Pharmacogenetics, 13, 535-541, supra. The cDNAs for […] (also referred to as WT) and […] coding regions were generated from human lymphocyte RNA, subcloned into pCNDA3, and transfections of A431 cells carried out as described. Selection of positive clones was carried out in media containing 400 μg/ml G418. Expression of AC9 was determined in individual clonal lines by Western blots (see below). A431 cells were grown in monolayers in Dulbecco's modified Eagle's medium with 4 mM […] 10% fetal bovine serum, 100 U/ml penicillin and 100 μg/ml streptomycin, at 37° in a 5% CO2 atmosphere. In some studies, cells at 90% confluency in the absence of serum were treated with 500 nM dexamethasone for 12 hours and then utilized as described below. […] M et al., “Beta1-adrenergic receptor polymorphisms confer differential function and predisposition to heart failure” Nat. Med., 9, 1300-1305 (2003). […] [^32P] cAMP was separated from […] by chromatography over alumina columns. The [^3H] cAMP standard included in the stop buffer accounted for individual column recovery.

WT (Ile772) AC9 = target: T2, WT (Ile772) AC9 (Homo sapiens, UniProt O60503); test: Adenylyl cyclase activities in membranes of A431 cells transfected with WT (Ile772) AC9; format: biochemical; settings: for albuterol stimulated adenylyl cyclase activities: WT cells, 10 μM albuterol, N=5
T2 construct: expressed in transfected cells
T2 sequence (O60503 1-1353): T1 sequence (O60503 1-1353 I772M) with M772I
From the text: as §1

asthmatic children = test: CAMP clinical cohort: bronchodilator response (FEV1) stratified by AC9 genotype; format: in vivo, human; settings: for Bronchodilator response at baseline: at randomization
From the text: The study cohort consisted of pediatric patients who participated in the Childhood Asthma Management Program (CAMP). The study was a multicenter, randomized, trial comparing regularly scheduled inhalation treatment with the corticosteroid budesonide, the putative mast-cell “stabilizer” nedocromil, and placebo. The study design has been previously published in “Long-term effects of budesonide or nedocromil in children with asthma” N. Engl. J. Med., 343, 1054-1063 (2000). […] Once per year a methacholine challenge was performed to ascertain bronchial hyperresponsiveness. The current study utilized archived DNA from patients who participated in the CAMP DNA Ancillary Study. Because of potential population stratification issues (the allele frequency of Met772 is ˜0.30 in Caucasians and ˜0.15 in African Americans) and the small number of African American children enrolled in CAMP (14%), the current study was confined to Caucasian children. […] The analysis was focused then, on 436 children, with follow-up through 48 months, the last time point in which nearly complete measures were obtained for the cohort. The subjects' parents provided informed consent, and the study was approved by the Institutional Review Boards of each participating center.
The AC9 SNP at nucleotide 2316 was genotyped via a SEQUENOM MassARRAY MALDI-TOF mass spectrometer (Sequenom, San Diego, Calif.) for analysis of unlabeled single-base extension minisequencing reactions with a semiautomated primer design program (Spectro[…], Sequenom). […] To assess for possible population stratification, a random panel of 49 SNPs across the genome (“stratification SNPs”), obtained through the SNP Consortium (TSC) database was also genotyped. SNPs were chosen that are widely distributed throughout the genome and exclude promoters, genomic UTRs, exons, and introns of known genes.
Bronchodilator response is defined as FEV1 after bronchodilator minus FEV1 before bronchodilator divided by FEV1 before bronchodilator times 100 [(Post-FEV1−Pre-FEV1)/(Pre-FEV1)×100]. Longitudinal models of bronchodilator response, using repeated measures modeling with time as a linear effect and an unstructured covariance matrix, are used. These models evaluate change in bronchodilator response beginning at the 2 month follow-up visit, allowing for evaluation of change based on treatment type. Univariate and multivariable analyses adjusting for age, sex, and bronchodilator response at baseline are performed, under the assumption of a dominant model. To test for interaction between steroid treatment and Ile772Met genotypic status, treatment specific strata was evaluated and included interaction terms in the models. A “mean bronchodilator” response is also derived by taking all of the observations over the 4 years and dividing by the number of visits. This value was used as the primary outcome in the haplotypic assessment of interactions between the β2AR locus and the AC9 polymorphism.

β2AR = test: 125I-CYP radioligand binding for endogenous β2AR density in transfected A431 cells; format: cell-based
Description: The cDNAs for Ile772 (also referred to as WT) and Met772 coding regions were generated from human lymphocyte RNA, subcloned into pCNDA3, and transfections of A431 cells carried out as described. Selection of positive clones was carried out in media containing 400 μg/ml G418. Expression of AC9 was determined in individual clonal lines by Western blots (see below). A431 cells were grown in monolayers in Dulbecco's modified Eagle's medium with 4 mM L-glutamate 10% fetal bovine serum, 100 U/ml penicillin and 100 μg/ml streptomycin, at 37° in a 5% CO2 atmosphere. In some studies, cells at 90% confluency in the absence of serum were treated with 500 nM dexamethasone for 12 hours and then utilized as described below.
Transfected A431 cells were washed three times with phosphate-buffered saline (PBS), detached by scraping in 5 mM Tris, pH 7.4, 2 mM ethylenediaminetetracetic acid (EDTA) buffer, and centrifuged at 30,000 g for 10 min. […] Nonspecific binding was determined with 1 μM propranolol. […] AC9 expression in these transfected cell lines was assessed by quantitative immunoblotting so as to select lines expressing Ile772 or Met772 at the same levels for pharmacologic studies, and to ascertain if corticosteroid treatment altered expression. […] Relative levels of AC9 expression were subsequently determined using ScanAnalysis software (BioSoft, Cambridge, UK).

[1] = after dexamethasone treatment (500 nM)

In the case of [Cl][Mn][Cl] [MnCl2], the “stimulated adenylyl cyclase activities of Met772 compared to WT” value (Met772 AC9) was “decreased compared to WT”.

In the case of [F-].[Na+] [NaF], the “stimulated adenylyl cyclase activities of Met772 compared to WT” value (Met772 AC9) was “decreased compared to WT”.

With CC(C)(C)NCC(O)c1ccc(O)c(CO)c1 (stereo not drawn) [albuterol] the “albuterol stimulated adenylyl cyclase activities” value (Met772 AC9; [1]) was 43 ± 3.4 pmol/min/mg, the “albuterol stimulated adenylyl cyclase activities” value (Met772 AC9; before dexamethasone treatment) was 24 ± 1.3 pmol/min/mg and the “stimulated adenylyl cyclase activities of Met772 compared to WT” value (Met772 AC9) was “not different between the lines”. The “albuterol stimulated adenylyl cyclase activities” value (WT (Ile772) AC9; [1]) was 33 ± 2.5 pmol/min/mg, the “albuterol stimulated adenylyl cyclase activities” value (WT (Ile772) AC9; before dexamethasone treatment) was 27 ± 2.1 pmol/min/mg and the “increase of albuterol-stimulated adenylyl cyclase response” value (WT (Ile772) AC9; cells expressing Ile772 cultured in the presence of glucocorticoid) was about 20%. For the same compound, the “Bronchodilator response at baseline” value (asthmatic children; Met772 carriers) was 11.17 ± 11.24, the “average bronchodilator response (±SE), univariate” value (asthmatic children; Overall Cohort, Met772, 4 year follow-up) was 9.23 ± 0.34% and the “average bronchodilator response (±SE), multivariate” value (asthmatic children; Overall Cohort, Met772, adjusted for age, gender, inhaled steroid usage, baseline response, time) was 6.17 ± 0.92%. For the same compound, the “average bronchodilator response (±SE), univariate” value (asthmatic children; Overall Cohort, Wildtype, 4 year follow-up) was 9.41 ± 0.48%, the “average bronchodilator response (±SE), univariate” value (asthmatic children; Placebo Group (no inhaled steroid), Met772) was 9.94 ± 0.61% and the “average bronchodilator response (±SE), univariate” value (asthmatic children; Placebo Group (no inhaled steroid), Wildtype) was 10.92 ± 0.79%. For the same compound, the “average bronchodilator response (±SE), univariate” value (asthmatic children; Steroid Group (inhaled budesonide), Met772) was 8.72±0.54%, the “average bronchodilator response (±SE), multivariate” value (asthmatic children; Steroid Group (inhaled budesonide), Met772, adjusted) was 5.78 ± 1.49% and the “average bronchodilator response (±SE), univariate” value (asthmatic children; Steroid Group (inhaled budesonide), Wildtype) was 6.76±0.69%. The “Bronchodilator response at baseline” value (asthmatic children; WT patients) was 10.32 ± 9.18.

In the case of CCCC1O[C@@H]2C[C@H]3[C@@H]4CCC5=CC(=O)C=C[C@]5(C)[C@H]4[C@@H](O)C[C@]3(C)[C@]2(C(=O)CO)O1 (stereo partly drawn) [budesonide], the “increase in bronchodilation response of Met772 carriers compared to wild type” value (asthmatic children; on inhaled budesonide, univariate) was about 2 percentage point.

C[C@@H]1C[C@H]2[C@@H]3CCC4=CC(=O)C=C[C@]4(C)[C@@]3(F)[C@@H](O)C[C@]2(C)[C@@]1(O)C(=O)CO [dexamethasone] was tested, and the β2AR expression (β2AR; Met772 AC9 line after corticosteroid (dexamethasone) exposure, untreated 66±8.9) was 109 ± 9.0 fmol/mg and the β2AR expression (β2AR; WT AC9 line after corticosteroid (dexamethasone) exposure, untreated 51±6.2) was 103 ± 7.8 fmol/mg.
